Measured values as given in US8282935B2 (priority 2001, dated 2012).

Test system: A2 molecules
Format: binding, human

M L L A V L Y C L (SEQ ID NO: 5) [tyrosinase 1-9]
binding affinity for A2 molecules: significantly lower affinity
